This note sets out measurements from patent US11814428B2, “Anti-PTCRA antibody-drug conjugates and uses thereof” (REGENERON PHARMACEUTICALS, INC., priority 2019, dated 2023).

This experiment has as its system SupT1 cells. Briefly: Proliferation of T-ALL cells treated with SRC-family kinase inhibitor. The class given is cell-based, human. The conditions noted are these: PTCRA-dependent T-ALL cell lines.

With `Cc1ccc(-c2nn(C(C)(C)C)c3ncnc(N)c23)cc1` [PP1], the anti-proliferative response entry is “dose-dependent anti-proliferative response”.
